Consider 15 compounds from US10703756B2, “Pyrrolo[2,3-D]pyrimidinyl, pyrrolo[2,3-B]pyrazinyl, pyrrolo[2,3-B]pyridinyl acrylamides and epoxides thereof” (Pfizer Inc., priority 2015, dated 2020).

Test [1] concerns IL-15 induced STAT5 phosphorylation in human whole blood lymphocytes. In words: HWB IL-15 Induced STAT5 Phosphorylation Assay. The format is cell-based. The settings on record: Lymphocyte, IL-15 final 50 ng/ml, read-out: HWB_IL15 pSTAT5 IC50. On the procedure: HWB IL-15 Induced STAT5 Phosphorylation Assay
After serial dilution of the test compounds 1:2 in DMSO at desired concentration (500× of final), the compounds were further diluted in PBS (by adding 4 μL compound/DMSO in 96 μL PBS, [DMSO]=4%, 20× final). To 96-well polypropylene plates were added 90 μl HWB (heparin treated Human Whole Blood)/well, followed by 5 μl/well 4% DMSO in D-PBS or various concentrations of 20× inhibitor in 4% DMSO in D-PBS (w/o Ca^+2 or Mg^+2) to give 1× in 0.2% DMSO. After mixing and incubating for 45 minutes at 37° C., 5 μl D-PBS (unstimulated control) or 20× stocks of 5 μl human IL-15 (final concentration is 50 ng/ml) were added, and mixed three times. After incubating 15 minutes at 37° C., 1× Lyse/Fix Buffer (BD Phosflow 5× Lyse/Fix Buffer) was added to all wells at 1000 μl/well, then incubated for 20 minutes at 37° C. and spun 5 mins at 1200 rpm. After washing in 1000 μl FACS buffer 1× and spinning for 5 mins at 1200 rpm, 400 μl ice cold Perm Buffer III were added to each well. After mixing gently (1-2×) and incubating on ice for 30 minutes, spinning for 5 mins at 1200 rpm without interruption, and washing 1× in cold […] FACS buffer (D-PBS containing 0.1% BSA and 0.1% sodium azide) 250 μl/well of the desired AlexaFluor647-conjugated anti-phospho STATS antibody at 1:125 dilution in FACS buffer was added. Following incubating at 4° C. over night, all the samples were transferred to 96-well polypropylene U-bottom plate, and checked by flow cytometry gated on total lymphocytes.

For test [2], the target named is T1, JAK3 enzyme (Homo sapiens, UniProt P52333).
T1 sequence (P52333 1-1124): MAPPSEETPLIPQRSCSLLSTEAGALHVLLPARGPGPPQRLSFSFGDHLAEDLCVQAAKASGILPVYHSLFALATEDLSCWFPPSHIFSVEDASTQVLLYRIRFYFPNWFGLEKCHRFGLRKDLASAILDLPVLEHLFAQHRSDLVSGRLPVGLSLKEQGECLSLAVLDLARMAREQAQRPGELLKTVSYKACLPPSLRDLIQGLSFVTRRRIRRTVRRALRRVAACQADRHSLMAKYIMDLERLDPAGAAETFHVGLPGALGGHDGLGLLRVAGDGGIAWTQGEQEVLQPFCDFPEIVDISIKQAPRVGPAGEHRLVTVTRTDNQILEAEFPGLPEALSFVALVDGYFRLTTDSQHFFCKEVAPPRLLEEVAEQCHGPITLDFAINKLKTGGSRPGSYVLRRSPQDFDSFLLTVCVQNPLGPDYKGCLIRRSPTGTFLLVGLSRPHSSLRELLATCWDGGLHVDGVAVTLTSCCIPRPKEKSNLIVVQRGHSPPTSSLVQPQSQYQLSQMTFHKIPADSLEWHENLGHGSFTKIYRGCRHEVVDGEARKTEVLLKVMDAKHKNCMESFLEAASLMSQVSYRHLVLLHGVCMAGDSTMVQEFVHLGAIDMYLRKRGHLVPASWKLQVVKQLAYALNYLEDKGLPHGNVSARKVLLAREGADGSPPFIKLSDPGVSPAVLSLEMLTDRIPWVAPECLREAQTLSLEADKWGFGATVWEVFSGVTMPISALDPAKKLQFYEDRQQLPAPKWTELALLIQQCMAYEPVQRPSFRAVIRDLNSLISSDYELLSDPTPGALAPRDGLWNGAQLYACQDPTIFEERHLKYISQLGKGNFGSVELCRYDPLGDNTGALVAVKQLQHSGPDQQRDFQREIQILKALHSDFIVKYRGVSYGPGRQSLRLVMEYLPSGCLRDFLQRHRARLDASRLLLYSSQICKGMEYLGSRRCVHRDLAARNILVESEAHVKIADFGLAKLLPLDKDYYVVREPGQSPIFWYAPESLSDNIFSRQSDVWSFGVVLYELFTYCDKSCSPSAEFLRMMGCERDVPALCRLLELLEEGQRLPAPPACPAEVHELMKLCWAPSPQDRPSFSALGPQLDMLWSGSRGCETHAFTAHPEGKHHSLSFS
In words: JAK Caliper Enzyme Assay at 1 mM ATP. The test is classed as biochemical. In a few lines:
(§1)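 Read-out: microfluidic mobility-shift separation quantifying substrate peptide versus phosphopeptide. Compounds were tested as 11-point half-log dilutions, top 600 μM in DMSO before transfer. Enzyme level and reaction time were tuned for each prep so conversion stayed at 20%-30%.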

The target of test [3] is T1, JAK3 enzyme. In words: JAK Caliper Enzyme Assay at 4 μM ATP. The test is classed as biochemical. In a few lines:
as §1

The subject of test [4] is IL-15 induced P-STAT5 in human PBMC. In words: PBMC IL-15 Induced P-STAT5. The format is cell-based. The settings on record: human PBMC, IL-15 final 41 ng/mL; read-out: PBMC IL15_pSTAT5_IC50. In a few lines:
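Flow cytometry gated on total lymphocytes measured STAT5 staining (Alexa Fluor 647 antibody, overnight, 4 °C) in fixed, methanol-permeabilised human PBMC. Cells had received compound for 15 min at 37 °C (0.2% DMSO final), followed by 41 ng/mL final human IL-15 for 15 min.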

As for `C=CC(=O)N1CC[C@@H](Nc2cnc3[nH]cc(C(=O)NC4CCCC4)c3n2)[C@@H](OC)C1` (racemic) [Example 299, Racemic-2-{[(3S,4R)-1-acryloyl-3-methoxypiperidin-4-yl]amino}-N-cyclopentyl-5H-pyrrolo[2,3-b]pyrazine-7-carboxamide], the IC50 in test [1] turned out to be 913 nM; at JAK3 enzyme [2], 57 nM; at JAK3 enzyme [3], 1.21 nM; in test [4] it was 305 nM.

On to `C=CC(=O)N1CCC(Nc2cnc3[nH]cc(C(=O)NCc4ccc(F)c(OC)c4)c3n2)CC1` [Example 174, 2-[(1-acryloylpiperidin-4-yl)amino]-N-(4-fluoro-3-methoxybenzyl)-5H-pyrrolo[2,3-b]pyrazine-7-carboxamide], for which the IC50 came to 1730 nM in test [1], 13 nM against JAK3 enzyme [2], 0.368 nM against JAK3 enzyme [3] and 162 nM in test [4].

`C=CC(=O)N1CCC(Nc2cnc3[nH]cc(C(=O)NCc4cc(C(C)C)no4)c3n2)CC1` [Example 175, 2-[(1-acryloylpiperidin-4-yl)amino]-N-{[3-(propan-2-yl)-1,2-oxazol-5-yl]methyl}-5H-pyrrolo[2,3-b]pyrazine-7-carboxamide]: the IC50 came to 1320 nM in test [1], 8 nM against JAK3 enzyme [2], 0.426 nM against JAK3 enzyme [3] and 77.3 nM in test [4].

For `C=CC(=O)N1CCC(Nc2cnc3[nH]cc(C(=O)NCC(F)(F)C(F)(F)F)c3n2)CC1` [Example 179, 2-[(1-acryloylpiperidin-4-yl)amino]-N-(2,2,3,3,3-pentafluoropropyl)-5H-pyrrolo[2,3-b]pyrazine-7-carboxamide], the IC50 in test [1] came to 850 nM; on JAK3 enzyme [2], 18 nM; on JAK3 enzyme [3], 0.596 nM; in test [4], 94.8 nM.

Consider `C=CC(=O)N1CCC(Nc2cnc3[nH]cc(C(=O)NCc4sc(C(F)(F)F)nc4C)c3n2)CC1` [Example 180, 2-[(1-acryloylpiperidin-4-yl)amino]-N-{[4-methyl-2-(trifluoromethyl)-1,3-thiazol-5-yl]methyl}-5H-pyrrolo[2,3-b]pyrazine-7-carboxamide], for which the IC50 came to 944 nM in test [1], 12 nM against JAK3 enzyme [2], 0.481 nM against JAK3 enzyme [3] and 204 nM in test [4].

Turning to `C=CC(=O)N1CCC(Nc2cnc3[nH]cc(C(=O)NCc4ccc(OC(F)F)cc4)c3n2)CC1` [Example 181, 2-[(1-acryloylpiperidin-4-yl)amino]-N-[4-(difluoromethoxy)benzyl]-5H-pyrrolo[2,3-b]pyrazine-7-carboxamide], the IC50 in test [1] worked out at 1820 nM; at JAK3 enzyme [2], 5 nM; at JAK3 enzyme [3], 0.379 nM; in test [4], 159 nM.

`C=CC(=O)N1CCC(Nc2cnc3[nH]cc(C(=O)NCc4scnc4C(F)(F)F)c3n2)CC1` [Example 185, 2-[(1-acryloylpiperidin-4-yl)amino]-N-{[4-(trifluoromethyl)-1,3-thiazol-5-yl]methyl}-5H-pyrrolo[2,3-b]pyrazine-7-carboxamide]: the IC50 turned out to be 542 nM in test [1], 6 nM at JAK3 enzyme [2], 0.372 nM on JAK3 enzyme [3] and 73 nM in test [4].

Regarding `C=CC(=O)N1CCC(Nc2cnc3[nH]cc(C(=O)NCc4ccc(Cl)cn4)c3n2)CC1` [Example 186, 2-[(1-acryloylpiperidin-4-yl)amino]-N-[(5-chloropyridin-2-yl)methyl]-5H-pyrrolo[2,3-b]pyrazine-7-carboxamide], the IC50 in test [1] was 870 nM; against JAK3 enzyme [2], 15 nM; against JAK3 enzyme [3], 0.485 nM; in test [4], 213 nM.

Turning to `C=CC(=O)N1CCC(Nc2cnc3[nH]cc(C(=O)NCc4ccc(OC)c(F)c4)c3n2)CC1` [Example 190, 2-[(1-acryloylpiperidin-4-yl)amino]-N-(3-fluoro-4-methoxybenzyl)-5H-pyrrolo[2,3-b]pyrazine-7-carboxamide], the IC50 in test [1] came out at 619 nM; against JAK3 enzyme [2], 7 nM; against JAK3 enzyme [3], 0.193 nM; in test [4] it was 96.9 nM.

For `C=CC(=O)N1CCC(Nc2cnc3[nH]cc(C(=O)NCc4ccc(OC)cc4)c3n2)CC1` [Example 191, 2-[(1-acryloylpiperidin-4-yl)amino]-N-(4-methoxybenzyl)-5H-pyrrolo[2,3-b]pyrazine-7-carboxamide], the IC50 was determined as 778 nM in test [1], 9 nM against JAK3 enzyme [2], 0.484 nM on JAK3 enzyme [3] and 137 nM in test [4].

Consider `C=CC(=O)N1CCC(Nc2cnc3[nH]cc(C(=O)NCC4CCC4)c3n2)CC1` [Example 193, 2-[(1-acryloylpiperidin-4-yl)amino]-N-(cyclobutylmethyl)-5H-pyrrolo[2,3-b]pyrazine-7-carboxamide], for which the IC50 stood at 637 nM in test [1], 5 nM against JAK3 enzyme [2], 0.393 nM against JAK3 enzyme [3] and 68.4 nM in test [4].

`C=CC(=O)N1CCC(Nc2cnc3[nH]cc(C(=O)NCc4sc(C)nc4C(F)(F)F)c3n2)CC1` [Example 195, 2-[(1-acryloylpiperidin-4-yl)amino]-N-{[2-methyl-4-(trifluoromethyl)-1,3-thiazol-5-yl]methyl}-5H-pyrrolo[2,3-b]pyrazine-7-carboxamide]: the IC50 in test [1] stood at 688 nM; on JAK3 enzyme [2] it was 7 nM; at JAK3 enzyme [3] it was 0.494 nM; in test [4], 82.7 nM.

For `C=CC(=O)N1CCC(Oc2cnc3[nH]cc(C(=O)NCCC(F)(F)F)c3n2)CC1` [Example 198, 2-[(1-acryloylpiperidin-4-yl)oxy]-N-(3,3,3-trifluoropropyl)-5H-pyrrolo[2,3-b]pyrazine-7-carboxamide], the IC50 in test [1] was 1400 nM; against JAK3 enzyme [2], 53 nM; on JAK3 enzyme [3], 0.361 nM; in test [4], 250 nM.

As for `C=CC(=O)N1CCC(Oc2cnc3[nH]cc(C(=O)N[C@@H]4CC[C@H](F)C4)c3n2)CC1` [Example 199, 2-[(1-acryloylpiperidin-4-yl)oxy]-N-[(1R,3S)-3-fluorocyclopentyl]-5H-pyrrolo[2,3-b]pyrazine-7-carboxamide], the IC50 in test [1] turned out to be 2020 nM; at JAK3 enzyme [2], 47 nM; against JAK3 enzyme [3], 0.414 nM; in test [4], 250 nM.

`C=CC(=O)N1CCC(Oc2cnc3[nH]cc(C(=O)NCCOC)c3n2)CC1` [Example 211, 2-[(1-acryloylpiperidin-4-yl)oxy]-N-(2-methoxyethyl)-5H-pyrrolo[2,3-b]pyrazine-7-carboxamide]: the IC50 in test [1] turned out to be 1740 nM; against JAK3 enzyme [2] it was 74 nM; against JAK3 enzyme [3], 0.5 nM; in test [4] it was 395 nM.
